Assay results taken from patent US20090304692A1, “TRIAZINE COMPOUNDS AS PI3 KINASE AND MTOR INHIBITORS” (Wyeth, priority 2008, published 2009).
Values joined by “and” are separate entries in the source; they are usually repeats but may differ in a detail not shown here. Equal entries are not always repeated. Where two headings read alike, the source gives them in different places.

Assays:
Human mTOR (FLAG-TOR) = Human mTOR (FLAG-TOR) (Homo sapiens, UniProt P42345); experiment: mTOR kinase assay (DELFIA format, purified enzyme); format: biochemical; conditions: read-out: IC50 mTOR
PI3K-α = PI3K-α (Homo sapiens, UniProt P42336); experiment: PI3K-alpha fluorescence polarization assay; conditions: read-out: IC50 PI3Kα
[1] = test system: human prostate PC3-mm2 tumor cell line; experiment: In vitro cell culture growth assay (MTS), PC3-mm2; format: cell-based; conditions: Homo sapiens, PC3MM2, 72 h
PI3K-γ = PI3K-γ (Homo sapiens, UniProt P48736); experiment: PI3K-gamma fluorescence polarization assay; conditions: read-out: IC50 PI3Kγ
PI3K-γ, sequence (P48736 whole entry, species assumed): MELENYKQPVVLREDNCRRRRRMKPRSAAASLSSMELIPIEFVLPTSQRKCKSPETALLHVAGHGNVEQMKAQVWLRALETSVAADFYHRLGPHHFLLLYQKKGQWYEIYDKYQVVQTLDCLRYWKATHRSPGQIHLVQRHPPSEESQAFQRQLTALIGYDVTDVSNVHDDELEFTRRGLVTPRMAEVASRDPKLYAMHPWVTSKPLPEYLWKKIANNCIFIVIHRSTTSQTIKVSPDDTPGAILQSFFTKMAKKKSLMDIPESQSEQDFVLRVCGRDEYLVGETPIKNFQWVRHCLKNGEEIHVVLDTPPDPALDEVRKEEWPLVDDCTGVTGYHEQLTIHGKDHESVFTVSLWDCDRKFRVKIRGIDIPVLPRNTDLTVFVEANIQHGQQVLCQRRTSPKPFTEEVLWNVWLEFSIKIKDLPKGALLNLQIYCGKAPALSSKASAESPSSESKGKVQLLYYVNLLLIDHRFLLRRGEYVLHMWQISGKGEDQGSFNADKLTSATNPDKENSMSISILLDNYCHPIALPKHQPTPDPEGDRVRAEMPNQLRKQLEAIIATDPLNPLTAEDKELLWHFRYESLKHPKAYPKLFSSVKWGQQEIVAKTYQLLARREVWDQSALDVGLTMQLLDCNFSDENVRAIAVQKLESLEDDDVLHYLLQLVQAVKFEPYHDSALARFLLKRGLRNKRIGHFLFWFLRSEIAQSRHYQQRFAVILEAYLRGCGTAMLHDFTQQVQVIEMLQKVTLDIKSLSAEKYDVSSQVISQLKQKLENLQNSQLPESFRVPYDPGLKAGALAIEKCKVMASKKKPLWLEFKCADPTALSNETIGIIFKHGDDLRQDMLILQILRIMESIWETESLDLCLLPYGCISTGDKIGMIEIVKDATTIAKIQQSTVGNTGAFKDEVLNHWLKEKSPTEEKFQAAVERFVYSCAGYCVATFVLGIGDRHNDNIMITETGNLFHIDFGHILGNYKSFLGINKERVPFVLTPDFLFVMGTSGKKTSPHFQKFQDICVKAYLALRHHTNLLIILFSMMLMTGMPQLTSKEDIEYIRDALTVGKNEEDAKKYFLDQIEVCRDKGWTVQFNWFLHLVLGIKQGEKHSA

Human mTOR (FLAG-TOR), sequence (P42345 1360-2549 limits assumed): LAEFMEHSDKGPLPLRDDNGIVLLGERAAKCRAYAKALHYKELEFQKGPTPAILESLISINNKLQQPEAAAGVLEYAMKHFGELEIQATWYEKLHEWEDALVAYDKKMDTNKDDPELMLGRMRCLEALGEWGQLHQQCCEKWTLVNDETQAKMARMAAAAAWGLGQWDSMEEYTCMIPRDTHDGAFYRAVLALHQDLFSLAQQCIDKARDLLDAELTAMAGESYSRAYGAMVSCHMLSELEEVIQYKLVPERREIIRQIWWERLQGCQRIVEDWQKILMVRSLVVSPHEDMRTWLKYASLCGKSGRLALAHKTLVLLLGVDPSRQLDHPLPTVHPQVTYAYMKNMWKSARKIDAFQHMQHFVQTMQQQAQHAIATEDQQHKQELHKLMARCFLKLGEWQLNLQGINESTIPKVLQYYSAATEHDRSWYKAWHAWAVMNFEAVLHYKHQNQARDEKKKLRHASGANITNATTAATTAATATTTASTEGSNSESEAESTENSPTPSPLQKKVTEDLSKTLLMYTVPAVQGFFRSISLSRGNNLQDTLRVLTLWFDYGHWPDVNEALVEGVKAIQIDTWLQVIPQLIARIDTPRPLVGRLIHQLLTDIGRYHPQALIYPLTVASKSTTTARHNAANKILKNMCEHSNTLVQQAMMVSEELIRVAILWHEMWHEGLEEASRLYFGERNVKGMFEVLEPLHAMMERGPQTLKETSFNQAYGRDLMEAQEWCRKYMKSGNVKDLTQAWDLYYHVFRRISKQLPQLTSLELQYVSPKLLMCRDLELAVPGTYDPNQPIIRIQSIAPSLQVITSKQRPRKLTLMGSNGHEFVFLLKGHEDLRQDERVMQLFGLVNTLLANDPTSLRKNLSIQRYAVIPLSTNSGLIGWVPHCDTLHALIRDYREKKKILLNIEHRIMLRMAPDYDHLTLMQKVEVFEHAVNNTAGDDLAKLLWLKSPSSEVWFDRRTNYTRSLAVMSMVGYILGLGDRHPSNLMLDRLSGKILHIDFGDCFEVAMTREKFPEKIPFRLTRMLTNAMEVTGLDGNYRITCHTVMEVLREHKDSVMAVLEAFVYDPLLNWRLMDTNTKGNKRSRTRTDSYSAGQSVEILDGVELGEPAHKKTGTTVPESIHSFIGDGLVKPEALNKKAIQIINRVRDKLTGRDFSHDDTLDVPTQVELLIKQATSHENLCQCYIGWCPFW
PI3K-α, sequence (P42336 whole entry, species assumed): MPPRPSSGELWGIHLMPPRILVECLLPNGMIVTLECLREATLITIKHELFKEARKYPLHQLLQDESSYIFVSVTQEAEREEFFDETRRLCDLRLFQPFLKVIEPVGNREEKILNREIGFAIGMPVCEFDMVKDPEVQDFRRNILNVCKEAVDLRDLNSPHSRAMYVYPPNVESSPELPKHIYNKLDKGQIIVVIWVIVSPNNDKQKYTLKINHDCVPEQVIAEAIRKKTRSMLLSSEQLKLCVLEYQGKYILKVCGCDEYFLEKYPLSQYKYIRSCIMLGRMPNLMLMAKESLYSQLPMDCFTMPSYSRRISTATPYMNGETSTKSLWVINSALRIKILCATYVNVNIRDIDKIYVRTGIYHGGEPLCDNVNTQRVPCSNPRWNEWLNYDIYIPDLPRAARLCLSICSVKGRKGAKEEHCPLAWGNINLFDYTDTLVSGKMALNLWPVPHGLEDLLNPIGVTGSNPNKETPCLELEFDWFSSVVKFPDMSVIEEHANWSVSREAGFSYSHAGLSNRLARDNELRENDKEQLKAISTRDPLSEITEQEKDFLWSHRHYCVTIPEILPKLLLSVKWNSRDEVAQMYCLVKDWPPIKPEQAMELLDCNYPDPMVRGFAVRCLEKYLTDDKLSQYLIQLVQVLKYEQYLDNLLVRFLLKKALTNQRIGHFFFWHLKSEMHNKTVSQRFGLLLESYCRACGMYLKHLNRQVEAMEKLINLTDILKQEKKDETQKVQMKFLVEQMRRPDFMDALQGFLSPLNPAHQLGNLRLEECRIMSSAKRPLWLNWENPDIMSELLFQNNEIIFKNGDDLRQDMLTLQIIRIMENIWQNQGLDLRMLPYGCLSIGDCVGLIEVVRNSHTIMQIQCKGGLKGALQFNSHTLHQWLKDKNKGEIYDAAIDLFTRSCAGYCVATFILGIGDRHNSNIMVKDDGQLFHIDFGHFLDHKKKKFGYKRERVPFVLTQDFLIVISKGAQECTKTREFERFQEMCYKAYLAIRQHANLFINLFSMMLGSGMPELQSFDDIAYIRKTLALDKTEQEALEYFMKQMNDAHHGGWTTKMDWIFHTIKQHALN
PI3K-α, sequence (P27986 whole entry partner, species assumed): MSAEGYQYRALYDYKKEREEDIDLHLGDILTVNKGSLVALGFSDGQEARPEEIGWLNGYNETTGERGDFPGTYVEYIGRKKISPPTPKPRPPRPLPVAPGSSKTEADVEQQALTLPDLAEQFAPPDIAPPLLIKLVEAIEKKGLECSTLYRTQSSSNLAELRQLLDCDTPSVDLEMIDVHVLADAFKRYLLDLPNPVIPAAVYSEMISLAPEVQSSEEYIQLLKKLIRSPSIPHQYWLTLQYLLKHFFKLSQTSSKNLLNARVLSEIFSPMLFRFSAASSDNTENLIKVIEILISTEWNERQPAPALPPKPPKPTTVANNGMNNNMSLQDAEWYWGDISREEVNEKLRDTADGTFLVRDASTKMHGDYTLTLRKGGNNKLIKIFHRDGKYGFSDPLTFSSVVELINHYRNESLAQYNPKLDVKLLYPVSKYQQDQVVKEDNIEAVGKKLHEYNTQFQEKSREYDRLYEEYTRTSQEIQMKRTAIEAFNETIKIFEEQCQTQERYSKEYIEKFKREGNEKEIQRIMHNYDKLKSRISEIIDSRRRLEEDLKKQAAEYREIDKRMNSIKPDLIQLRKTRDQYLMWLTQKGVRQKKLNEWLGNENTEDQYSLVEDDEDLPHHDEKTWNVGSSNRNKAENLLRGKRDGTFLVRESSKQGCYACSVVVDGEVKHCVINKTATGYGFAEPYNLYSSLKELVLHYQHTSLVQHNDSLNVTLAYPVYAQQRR

IC50 (Human mTOR (FLAG-TOR)) | IC50 (PI3K-α) [nM] | IC50 (PI3K-γ) [nM] | SMILES | also measured
10 nM | 3.5 |  | CN(C)C1CCN(C(=O)c2ccc(NC(=O)Nc3ccc(-c4nc(-c5cccs5)nc(N5CCOCC5)n4)cc3)cc2)CC1 [Example 568, 1-(4-{[4-(dimethylamino)piperidin-1-yl]carbonyl}phenyl)-3-{4-[4-morpholin-4-yl-6-(2-thienyl)-1,3,5-triazin-2-yl]phenyl}urea] | IC50 ([1]; MTS cell growth assay, three days after drug treatment, PC3-mm2 cells, read-out: IC50 PC3-mm2): 107 nM
0.68 nM | 0.8 |  | CN(C)C1CCN(C(=O)c2ccc(NC(=O)Nc3ccc(-c4nc(N5CCOCC5)nc(N5CCOCC5)n4)cc3)cc2)C1 (centres unmarked) [Example 167, 1-(4-{[3-(dimethylamino)pyrrolidin-1-yl]carbonyl}phenyl)-3-[4-(4,6-dimorpholin-4-yl-1,3,5-triazin-2-yl)phenyl]urea] | IC50 ([1]; MTS cell growth assay, three days after drug treatment, read-out: IC50 PC3-mm2): 10 nM
24 nM and 20 nM |  |  | CN(C)CCNC(=O)Nc1ccc(-c2nc(N3CCOCC3)nc(N3CCC4(CC3)OCCO4)n2)cc1 [Example 46, 1-[2-(dimethylamino)ethyl]-3-{4-[4-(1,4-dioxa-8-azaspiro[4.5]dec-8-yl)-6-morpholin-4-yl-1,3,5-triazin-2-yl]phenyl}urea] | IC50 (PI3K-γ; listed as 136): 4920 nM; IC50 (PI3K-γ; listed as 711): 4920 nM; IC50 (PI3K-α; listed as 136): 208 nM; IC50 (PI3K-α; listed as 711): 208 nM
13 nM | 64.5 | 190 | O=C(Nc1ccc(C(=O)O)cc1)Nc1ccc(-c2nc(N3CCCC3)nc(N3CCOCC3)n2)cc1 [Example 599, 4-({[4-(4-morpholin-4-yl-6-pyrrolidin-1-yl-1,3,5-triazin-2-yl)phenyl]carbamoyl}amino)benzoic acid] | 
37 nM | 114 | 461 | CCc1nc(-c2ccc(NC(=O)Nc3cccc(C(=O)OC)c3)cc2)nc(N2CCOCC2)n1 [Example 581, methyl 3-({[4-(4-ethyl-6-morpholin-4-yl-1,3,5-triazin-2-yl)phenyl]carbamoyl}amino)benzoate] | 
100 nM | 269 | 504 | COC(=O)c1ccc(NC(=O)Nc2ccc(-c3nc(-c4cccs4)nc(N4CCOCC4)n3)cc2)cc1 [Example 560, methyl 4-[({4-[4-morpholin-4-yl-6-(2-thienyl)-1,3,5-triazin-2-yl]phenyl}carbamoyl)amino]benzoate] | 
365 nM | 947 | 1250 | COC(=O)c1cccc(NC(=O)Nc2ccc(-c3nc(-c4ccccc4)nc(N4CCOCC4)n3)cc2)c1 [Example 586, methyl 3-({[4-(4-morpholin-4-yl-6-phenyl-1,3,5-triazin-2-yl)phenyl]carbamoyl}amino)benzoate] | 
8 nM | 6 | 70 | CCS(=O)(=O)N1CCN(c2nc(-c3ccc(NC(=O)Nc4ccc(C(=O)NCCN(C)C)cc4)cc3)nc(N3CCOCC3)n2)CC1 [Example 654, N-[2-(dimethylamino)ethyl]-4-{[(4-{4-[4-(ethylsulfonyl)piperazin-1-yl]-6-morpholin-4-yl-1,3,5-triazin-2-yl}phenyl)carbamoyl]amino}benzamide] | 
1 nM | 69 | 254 | CN(C)C(=O)N1CCN(c2nc(-c3ccc(NC(=O)Nc4ccncc4)cc3)nc(N3CCOCC3)n2)CC1 [Example 642, N,N-dimethyl-4-(4-morpholin-4-yl-6-{4-[(pyridin-4-ylcarbamoyl)amino]phenyl}-1,3,5-triazin-2-yl)piperazine-1-carboxamide] | 
7 nM | 4.1 | 34 | CCS(=O)(=O)N1CCN(c2nc(-c3ccc(NC(=O)Nc4ccc(C(=O)NCCCN(C)C)cc4)cc3)nc(N3CCOCC3)n2)CC1 [Example 653, N-[3-(dimethylamino)propyl]-4-{[(4-{4-[4-(ethylsulfonyl)piperazin-1-yl]-6-morpholin-4-yl-1,3,5-triazin-2-yl}phenyl)carbamoyl]amino}benzamide] | 
47 nM | 109 | 388 | CCc1nc(-c2ccc(NC(=O)Nc3ccc(C(=O)OC)cc3)cc2)nc(N2CCOCC2)n1 [Example 225, methyl 4-({[4-(4-ethyl-6-morpholin-4-yl-1,3,5-triazin-2-yl)phenyl]carbamoyl}amino)benzoate] | 
67 nM | 395 | 2190 | O=C(Nc1ccc(-c2nc(N3CCOCC3)nc(N3CC4CCC3CO4)n2)cc1)Nc1cc[nH]n1 (centres unmarked) [Example 809, 1-{4-[4-morpholin-4-yl-6-(2-oxa-5-azabicyclo[2.2.2]oct-5-yl)-1,3,5-triazin-2-yl]phenyl}-3-(1H-pyrazol-3-yl)urea] | 
8 nM | 74.5 | 375 | O=C(Nc1ccc(C(=O)O)cc1)Nc1ccc(-c2nc(N3CCCOCC3)nc(N3CCOCC3)n2)cc1 [Example 569, 4-[({4-[4-morpholin-4-yl-6-(1,4-oxazepan-4-yl)-1,3,5-triazin-2-yl]phenyl}carbamoyl)amino]benzoic acid] | 
14 nM | 71 | 248 | CCS(=O)(=O)N1CCN(c2nc(-c3ccc(NC(=O)Nc4ccc(C(=O)OC)cc4)cc3)nc(N3CCOCC3)n2)CC1 [Example 651, methyl 4-{[(4-{4-[4-(ethylsulfonyl)piperazin-1-yl]-6-morpholin-4-yl-1,3,5-triazin-2-yl}phenyl)carbamoyl]amino}benzoate] | 
580 nM | 56.5 | 462 | CC(=O)NC1CCN(C(=O)c2ccc(NC(=O)Nc3ccc(-c4nc(N5CCOCC5)nc(N5CCCN(C(C)C)CC5)n4)cc3)cc2)CC1 [Example 661, N-{1-[(4-{[(4-{4-[4-(1-methylethyl)-1,4-diazepan-1-yl]-6-morpholin-4-yl-1,3,5-triazin-2-yl}phenyl)carbamoyl]amino}phenyl)carbonyl]piperidin-4-yl}acetamide] | 
2800 nM | 345 | 795 | O=C(Nc1ccncc1)Nc1ccc(-c2nc(N3CCOCC3)nc(N3CCN(C45CC6CC(CC(C6)C4)C5)CC3)n2)cc1 [Example 640, 1-{4-[4-morpholin-4-yl-6-(4-tricyclo[3.3.1.13,7]dec-1-ylpiperazin-1-yl)-1,3,5-triazin-2-yl]phenyl}-3-pyridin-4-ylurea] | 
0.7 nM |  |  | CNC(=O)c1ccc(NC(=O)Nc2ccc(-c3nc(N4CCOCC4)nc(N4CCOCC4)n3)cc2)cc1 [Example 70, 4-(3-(4-(4,6-dimorpholino-1,3,5-triazin-2-yl)phenyl)ureido)-N-methylbenzamide] | IC50 ([1]; read-out: IC50 PC3-mm2, MTS cell growth assay, three days after drug treatment): 24 nM
3.4 nM | 42 | 180 | COC(CNc1nc(-c2ccc(NC(=O)Nc3cccnc3)cc2)nc(N2CCOCC2)n1)OC [Example 488, 1-(4-{4-[(2,2-dimethoxyethyl)amino]-6-morpholin-4-yl-1,3,5-triazin-2-yl}phenyl)-3-pyridin-3-ylurea] | 
17 nM | 63 | 253 | CCCCc1nc(-c2ccc(NC(=O)Nc3ccc(CN4CCN(C)CC4)cc3)cc2)nc(N2CCOCC2)n1 [Example 254, 1-[4-(4-butyl-6-morpholin-4-yl-1,3,5-triazin-2-yl)phenyl]-3-{4-[(4-methylpiperazin-1-yl)methyl]phenyl}urea] | 
26.5 nM | 724 | 4540 | C[C@H]1COCCN1c1nc(-c2ccc(NC(=O)Nc3ccc(C(=O)O)cc3)cc2)nc(N2CCOC[C@@H]2C)n1 [Example 549, 4-{[(4-{4,6-bis[(3S)-3-methylmorpholin-4-yl]-1,3,5-triazin-2-yl}phenyl)carbamoyl]amino}benzoic acid] | 
1500 nM and 1600 nM | 1610 | 4140 | COC(=O)c1ccc(NC(=O)Nc2ccc(-c3nc(-c4ccc(C)cc4)nc(N4CCOCC4)n3)cc2)cc1 [Example 344, methyl 4-[({4-[4-(4-methylphenyl)-6-morpholin-4-yl-1,3,5-triazin-2-yl]phenyl}carbamoyl)amino]benzoate] | IC50 (PI3K-α; listed as 528): 1610 nM
110 nM | 124 | 252 | CN1CCN(c2ccc(NC(=O)Nc3ccc(-c4nc(NS(=O)(=O)c5ccccc5)nc(N5CCOCC5)n4)cc3)cc2)CC1 [Example 782, N-{4-[4-({[4-(4-methylpiperazin-1-yl)phenyl]carbamoyl}amino)phenyl]-6-morpholin-4-yl-1,3,5-triazin-2-yl}benzenesulfonamide] | 
11.6 nM | 586 | 1080 | CC(C)c1nc(-c2ccc(NC(=O)Nc3ccc(I)cc3)cc2)nc(N2CCOCC2)n1 [Example 490, 1-(4-iodophenyl)-3-{4-[4-(1-methylethyl)-6-morpholin-4-yl-1,3,5-triazin-2-yl]phenyl}urea] | 
100 nM | 350 | 675 | CCc1nc(-c2ccc(NC(=O)Nc3cccc(C(=O)N4CCN(c5ccccn5)CC4)c3)cc2)nc(N2CCOCC2)n1 [Example 587, 1-[4-(4-ethyl-6-morpholin-4-yl-1,3,5-triazin-2-yl)phenyl]-3-{3-[(4-pyridin-2-ylpiperazin-1-yl)carbonyl]phenyl}urea] | 

SMILES | IC50 (Human mTOR (FLAG-TOR)) | IC50 (PI3K-α) [nM] | IC50 (PI3K-γ) [nM] | also measured
COC(=O)c1ccc(NC(=O)Nc2ccc(-c3nc(N4CCOCC4)nc(N4C5CCC4COC5)n3)cc2)cc1 [Example 693, methyl 4-[({4-[4-morpholin-4-yl-6-(3-oxa-8-azabicyclo[3.2.1]oct-8-yl)-1,3,5-triazin-2-yl]phenyl}carbamoyl)amino]benzoate] | 1.35 nM | 69 | 289 | 
